The structures appear in SMILES notation. Entries after “also recorded” stand apart in the source; their conditions may differ.

The test system of the experiment is EV-D68. The experiment can be described thus: EV-D68 VP1 western assay in HEp-2 cells. It counts as cell-based. Particulars: 48 h; for EV-D68 proliferation / major structural protein VP1: HEp-2 cells, western. The method, then:
HEp-2 cells were grown to 80-90% confluency in Dulbecco's Modified Eagle's medium (DMEM) supplemented with 10% fetal calf serum (FCS) and 1% penicillin-streptomycin (PS) and fungicide. The virus and the indicated concentration of compounds were added and incubated for 48 h. After washing with PBS, the cell lysates were collected and were run in a Biorad XT-Criterion gel and transferred to a PVDF membrane. The membrane was blotted with an antibody directed against the EVD68 major structural protein VP1 purchased from Genetex (Irvine, Calif.). An anti-mouse IgG-HRP secondary antibody and Biorad's Western ECL substrate-Clarity was used to label the bands and the image was obtained in a Biorad Gel doc system. […] The tubulin antibody was used as the loading control.
HEp-2 cells were grown to 80-90% confluency in Dulbecco's Modified Eagle's medium (DMEM) supplemented with 10% fetal calf serum (PCS) and 1% penicillin-streptomycin (PS) and 1% fungicide. The EV-D68 virus and the indicated concentration of compounds were added and incubated for 48 h. After washing with PBS, the cell lysates were collected and were run in a Biorad Stain free TGX gel and were transferred to a PVDF membrane. The membrane was blotted with an antibody directed against the EV-D68 major structural protein VP1 purchased from Genetex (Irvine, Calif.). An antimouse IgG-HRP secondary antibody and Biorad's Western ECL substrate-Clarity was used to label the bands and the image was obtained in a Biorad Gel doc system. […] The non-specific band high above the VP1 band indicate that all virus treated lanes were loaded with equal amount of lysates. The identity of the EV-D68 VP1 protein is confirmed by the lack of the 33 kD band in the no virus lane.
HEp-2 cells were grown to 80-90% confluency in Dulbecco's Modified Eagle's medium (DMEM) supplemented with 10% fetal calf serum FCS and 1% penicillin-streptomycin (PS) and fungicide. The representative virus (EV-D68) and the indicated concentration of compounds were added and incubated for 48 h. […]

On to `Nn1c(S)nnc1-c1cc(Cl)cc(Cl)c1` [SD29-14], for which the “EV-D68 proliferation / major structural protein VP1” value is reported as “inhibits EV-D68 proliferation in a dose dependent way; also recorded: effectively inhibited the viral major structural protein VP1”. In addition, where the note is “listed as SD 29-14”, the “EV-D68 proliferation / major structural protein VP1” value is on record as “inhibits proliferation of a representative virus (EV-D68), in a dose dependent way”. Besides, the “efficacy in inhibiting EV-D68 compared with SD29 and SD29-12” value (VP1 western) is on record as “better efficacy”.
